Numbering of substitutions follows the chain as printed.
Experiments:
[1] = target: T1, OsUGT79 (Oryza sativa subsp. japonica, UniProt Q7XT97); assay: biochemical; assay type: biochemical
T1 construct: made in house; host or cells: E. coli
T1 sequence (Q7XT97 1-466): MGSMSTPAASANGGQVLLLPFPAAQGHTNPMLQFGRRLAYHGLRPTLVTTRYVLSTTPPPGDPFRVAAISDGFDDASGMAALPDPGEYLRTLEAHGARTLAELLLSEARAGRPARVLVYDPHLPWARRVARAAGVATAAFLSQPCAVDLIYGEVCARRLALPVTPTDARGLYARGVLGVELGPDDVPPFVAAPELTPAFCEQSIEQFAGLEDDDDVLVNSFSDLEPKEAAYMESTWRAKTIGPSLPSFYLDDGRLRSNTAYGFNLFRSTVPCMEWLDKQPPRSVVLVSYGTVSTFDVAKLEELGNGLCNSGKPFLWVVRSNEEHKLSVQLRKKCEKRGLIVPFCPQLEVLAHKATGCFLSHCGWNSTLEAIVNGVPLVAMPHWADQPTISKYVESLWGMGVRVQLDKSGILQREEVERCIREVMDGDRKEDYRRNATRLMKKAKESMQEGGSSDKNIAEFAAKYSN

[2] = target: T2, OsUGT79 H122A/L123A/Q202A (Oryza sativa subsp. japonica, UniProt Q7XT97, H122A/L123A/Q202A); assay: biochemical; assay type: biochemical
T2 sequence (Q7XT97 1-466 H122A/L123A/Q202A): T1 sequence (Q7XT97 1-466) with H122A, L123A, Q202A

[3] = test system: human glucuronosyltransferases in liver microsomes; design: method as in Woelflingseder et al., 2019; conditions: ref Woelflingseder et al., 2019; cited from earlier work
[4] = test system: B. distachyon Bd21-3; design: species or system Brachypodium distachyon; conditions: in vivo
[5] = target: T3, OsUGT79 Q202A (Oryza sativa subsp. japonica, UniProt Q7XT97, Q202A); assay type: biochemical
T3 sequence (Q7XT97 1-466 Q202A): T1 sequence (Q7XT97 1-466) with Q202A

## CC1(C)CCC[C@]2(C)[C@@H]3[C@H]1[C@@H](O)[C@@]2(C)C[C@H]3O [CUL, culmorin]
[1]
  K iu of CUL (uncompetitive inhibition, DON as variable substrate): 208 µM
  K iu of CUL (uncompetitive inhibition, UDP-glucose as variable substrate): 124 µM
  Ki: 146 µM
[2]
  K iu of CUL (uncompetitive inhibition, DON as variable substrate): 217 µM
  Ki: 65 µM
[3]
  Effect on DON-glucuronidation: suppresses DON-glucuronidation
[4]
  Effect of CUL alone on root length: did not elicit any significant effect
  Effect of CUL with 2 mg l^−1 DON on root length: clear dose-dependent synergistic effect
[5]
  Specific activity (glucoside formation): 2.23 ± 0.08 nmol/min/mg

Reference: PMC13415951 (Journal of Experimental Botany, 2026)
